{"source": "patent US20030134420A1", "about": "“Methods and compositions for gene delivery” (priority 2000, published 2003)", "key": {"[1]": {"system": "pCMVLuc luciferase expression per gram of liver", "assay": "Luciferase expression in liver after tail vein injection of pCMVLuc polyplexes/formulants", "conditions": "mice; for Luciferase Average [pg./g liver]: 15 μg of DNA per injection"}, "[2]": {"assay": "Biodistribution and clearance of 125I-pCMVβGal", "format": "in vivo", "conditions": "mice", "protocol": "The biodistribution of ^125I-pCMV βGal was also studied in mice. Mice were injected with a dose of 300 μL containing 50 μg/mL of DNA. The distribution of free DNA, free DNA and TCDC, encapsulated in a polyplex comprised of block copolymer (PEG5k-b-(Cys-S—C18)10-b-(Lys)45) and the polyplex with TCDC were tested after 5 (FIG. 17A) and 60 (FIG. 17B) minutes. […] The clearance of ^125I-pCMVβGal was also studied using the ABC Polymer, (PEG5k-b-(Cys-S—C18)10-b-(Lys)45) (BP-A)."}}, "data": [{"compound": "C[C@H](CCC(=O)NCCCOCCOCCOCCCN)[C@H]1CC[C@H]2C3[C@H](O)C[C@@H]4C[C@H](O)CCC4(C)[C@H]3C[C@H](O)[C@]12C", "note": "(stereo partly drawn)", "values": [{"measurement": "Luciferase Average [pg./g liver]", "setting": "[1]; formulant dose 0.10%", "value": 3964, "unit": "pg./g liver"}]}, {"compound": "C[C@H](CCC(=O)NCCC[N+](C)(C)CCCS(=O)(=O)[O-])[C@H]1CC[C@H]2[C@@H]3[C@H](O)C[C@@H]4C[C@H](O)CC[C@]4(C)[C@H]3C[C@H](O)[C@]12C.O", "note": "[CHAPS, 3-[(3-Cholamidopropyl)dimethylammonio]1-propanesulfonate hydrate]", "values": [{"measurement": "Luciferase Average [pg./g liver]", "setting": "[1]; formulant dose 0.50%", "value": 178, "unit": "pg./g liver"}]}, {"compound": "C[C@H](CCC(=O)NCCC[N+](C)(C)CC(O)CS(=O)(=O)[O-])[C@H]1CC[C@H]2[C@@H]3[C@H](O)C[C@@H]4C[C@H](O)CC[C@]4(C)[C@H]3C[C@H](O)[C@]12C", "note": "(stereo partly drawn) [CHAPSO]", "values": [{"measurement": "Luciferase Average [pg./g liver]", "setting": "[1]; formulant dose 0.50%", "value": 188, "unit": "pg./g liver"}]}, {"compound": "CCCCCCC(=O)OC[C@H](COP(=O)([O-])OCC[N+](C)(C)C)OC(=O)CCCCCC", "note": "[DHPC]", "values": [{"measurement": "Luciferase Average [pg./g liver]", "setting": "[1]; formulant dose 0.40%", "value": 470, "unit": "pg./g liver"}, {"measurement": "effect of addition of formulant on luciferase expression (FIG. 15)", "setting": "[1]; 200 μL dose, 15 μg/mL pCMVLuc, Trigal copolymer polyplexes", "value": "greatly enhances the expression of luciferase"}]}, {"compound": "C[C@H](CCC(=O)N(CCCNC(=O)[C@H](O)[C@@H](O)[C@H](O)[C@H](O)CO)CCCNC(=O)[C@H](O)[C@@H](O)[C@H](O)[C@H](O)CO)[C@H]1CC[C@H]2[C@@H]3CC[C@@H]4C[C@H](O)CC[C@]4(C)[C@H]3C[C@H](O)[C@]12C", "note": "[Deoxy BIGCHAP]", "values": [{"measurement": "Luciferase Average [pg./g liver]", "setting": "[1]; formulant dose 0.50%", "value": 129, "unit": "pg./g liver"}]}, {"compound": "C[C@H](CCC(=O)NCCS(=O)(=O)[O-])[C@H]1CC[C@H]2[C@@H]3[C@@H](O)C[C@@H]4C[C@H](O)CC[C@]4(C)[C@H]3CC[C@]12C.[Na+]", "note": "[TCDC]", "values": [{"measurement": "biodistribution of 125I-pCMVβGal (FIG. 17)", "setting": "[2]; 300 μL dose, 50 μg/mL DNA, BP-A polyplex with TCDC, 5 and 60 minutes", "value": "redirects the polyplex from the lungs and other organs to the blood"}, {"measurement": "clearance / half-life of 125I-pCMVβGal DNA", "setting": "[2]; ABC Polymer (BP-A) polyplex, administration of TCDC", "value": "greatly enhanced the half-life of the DNA"}, {"measurement": "Luciferase Average [pg./g liver]", "setting": "[1]; formulant dose 0.50%", "value": 517, "unit": "pg./g liver"}]}]}
